Consider 35 compounds from patent US7049313B2, “ATM inhibitors” (Kudos Pharmaceuticals Ltd., priority 2002, dated 2006).

pIC50: −log10 of the molar value. Some results are limits rather than exact numbers.

One may read the pIC50 as −log10 of the IC50, conventionally taken in molar units. The term IC50 denotes the midpoint of a concentration-inhibition curve.

The target in one assay is T1, ATM (Homo sapiens, UniProt Q13315).
T1 construct: ATM protein was immunoprecipitated from HeLa cell nuclear extract; endogenous in cells; host or cells: HeLa cell nuclear extract (immunoprecipitate)
T1 sequence (Q13315 whole entry): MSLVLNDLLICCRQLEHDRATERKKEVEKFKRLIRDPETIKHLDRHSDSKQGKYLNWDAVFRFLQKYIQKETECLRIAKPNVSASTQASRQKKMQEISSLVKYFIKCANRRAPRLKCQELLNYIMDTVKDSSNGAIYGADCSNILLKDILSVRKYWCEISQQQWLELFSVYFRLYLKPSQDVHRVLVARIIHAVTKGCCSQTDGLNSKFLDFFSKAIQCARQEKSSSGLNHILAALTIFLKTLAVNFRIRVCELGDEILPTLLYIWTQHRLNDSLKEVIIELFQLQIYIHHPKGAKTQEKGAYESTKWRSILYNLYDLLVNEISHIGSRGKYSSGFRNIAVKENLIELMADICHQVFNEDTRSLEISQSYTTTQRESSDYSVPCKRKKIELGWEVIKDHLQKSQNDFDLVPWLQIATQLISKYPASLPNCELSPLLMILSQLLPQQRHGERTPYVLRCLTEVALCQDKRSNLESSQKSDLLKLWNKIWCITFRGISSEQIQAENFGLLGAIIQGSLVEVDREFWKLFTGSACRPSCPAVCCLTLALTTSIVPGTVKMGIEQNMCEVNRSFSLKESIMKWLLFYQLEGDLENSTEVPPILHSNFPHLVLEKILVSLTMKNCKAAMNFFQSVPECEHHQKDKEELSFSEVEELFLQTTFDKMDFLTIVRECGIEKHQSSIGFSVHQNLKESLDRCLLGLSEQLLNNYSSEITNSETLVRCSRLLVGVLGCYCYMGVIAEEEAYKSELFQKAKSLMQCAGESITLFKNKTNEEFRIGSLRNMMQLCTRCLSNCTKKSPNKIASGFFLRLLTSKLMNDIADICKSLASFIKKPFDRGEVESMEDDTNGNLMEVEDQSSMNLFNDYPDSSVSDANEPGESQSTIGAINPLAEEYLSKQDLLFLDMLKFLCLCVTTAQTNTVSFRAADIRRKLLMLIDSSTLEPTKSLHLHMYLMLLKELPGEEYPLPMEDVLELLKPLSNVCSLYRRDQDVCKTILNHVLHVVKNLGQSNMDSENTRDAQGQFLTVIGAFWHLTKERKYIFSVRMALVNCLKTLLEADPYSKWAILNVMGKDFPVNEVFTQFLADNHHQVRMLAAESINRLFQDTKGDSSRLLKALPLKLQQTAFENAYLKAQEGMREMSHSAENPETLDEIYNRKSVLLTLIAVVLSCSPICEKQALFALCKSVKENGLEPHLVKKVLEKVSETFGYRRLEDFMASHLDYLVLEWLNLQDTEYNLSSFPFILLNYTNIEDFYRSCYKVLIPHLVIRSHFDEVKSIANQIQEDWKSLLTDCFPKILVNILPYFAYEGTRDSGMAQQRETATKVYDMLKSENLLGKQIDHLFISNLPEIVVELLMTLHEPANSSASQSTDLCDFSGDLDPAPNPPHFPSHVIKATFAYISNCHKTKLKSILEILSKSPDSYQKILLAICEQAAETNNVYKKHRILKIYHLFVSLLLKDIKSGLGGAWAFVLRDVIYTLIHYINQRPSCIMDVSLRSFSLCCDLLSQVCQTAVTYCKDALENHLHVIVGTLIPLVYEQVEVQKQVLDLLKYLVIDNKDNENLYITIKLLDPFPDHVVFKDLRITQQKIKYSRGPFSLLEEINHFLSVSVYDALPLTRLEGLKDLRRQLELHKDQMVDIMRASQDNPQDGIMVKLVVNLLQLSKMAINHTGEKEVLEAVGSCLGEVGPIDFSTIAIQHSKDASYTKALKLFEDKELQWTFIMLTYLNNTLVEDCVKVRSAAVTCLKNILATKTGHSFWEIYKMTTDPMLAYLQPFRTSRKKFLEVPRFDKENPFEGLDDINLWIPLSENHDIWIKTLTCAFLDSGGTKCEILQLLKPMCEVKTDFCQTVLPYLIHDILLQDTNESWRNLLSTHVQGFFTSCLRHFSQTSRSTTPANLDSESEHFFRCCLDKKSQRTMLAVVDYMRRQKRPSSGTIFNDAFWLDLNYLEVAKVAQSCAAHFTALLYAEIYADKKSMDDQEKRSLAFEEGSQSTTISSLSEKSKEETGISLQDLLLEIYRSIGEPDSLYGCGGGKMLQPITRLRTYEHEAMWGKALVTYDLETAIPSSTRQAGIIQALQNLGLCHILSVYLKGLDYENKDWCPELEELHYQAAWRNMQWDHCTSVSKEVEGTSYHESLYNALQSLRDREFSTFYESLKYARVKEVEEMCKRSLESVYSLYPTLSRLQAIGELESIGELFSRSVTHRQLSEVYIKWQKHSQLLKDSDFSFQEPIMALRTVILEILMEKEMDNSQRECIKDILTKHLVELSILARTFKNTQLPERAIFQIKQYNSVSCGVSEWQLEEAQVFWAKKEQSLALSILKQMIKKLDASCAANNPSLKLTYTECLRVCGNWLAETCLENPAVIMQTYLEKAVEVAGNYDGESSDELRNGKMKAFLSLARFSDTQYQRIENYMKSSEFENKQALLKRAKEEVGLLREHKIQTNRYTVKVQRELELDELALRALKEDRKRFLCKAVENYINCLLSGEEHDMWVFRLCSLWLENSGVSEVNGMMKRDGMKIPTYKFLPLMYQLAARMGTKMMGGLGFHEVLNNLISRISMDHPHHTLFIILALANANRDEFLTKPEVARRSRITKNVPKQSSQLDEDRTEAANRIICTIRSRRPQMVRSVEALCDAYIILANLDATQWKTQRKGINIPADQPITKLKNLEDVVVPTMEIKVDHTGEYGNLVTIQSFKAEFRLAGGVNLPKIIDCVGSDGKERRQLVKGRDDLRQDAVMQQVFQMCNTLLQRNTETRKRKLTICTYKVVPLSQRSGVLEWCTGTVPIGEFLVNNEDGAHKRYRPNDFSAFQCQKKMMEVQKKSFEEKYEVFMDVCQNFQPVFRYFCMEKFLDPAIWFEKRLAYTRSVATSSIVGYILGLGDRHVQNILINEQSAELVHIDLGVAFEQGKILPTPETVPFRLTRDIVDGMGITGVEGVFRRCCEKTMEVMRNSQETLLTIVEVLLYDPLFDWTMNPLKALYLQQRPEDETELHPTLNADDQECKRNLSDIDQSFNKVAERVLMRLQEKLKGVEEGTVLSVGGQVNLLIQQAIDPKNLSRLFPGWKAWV
As to the kind of experiment: In vitro ATM inhibition assay (phosphorylation of GSTp53N66 on serine 15). The format is biochemical.
Settings: not given
As to the method: In vitro ATM inhibition Assays
In order to assess the inhibitory action of the compounds against ATM in vitro, the following assay was used to determine IC50 values.
ATM protein was immunoprecipitated from HeLa cell nuclear extract using rabbit polyclonal anti-sera raised to the C-terminal ˜500 amino-acid residues of the human ATM protein. The immunoprecipitation was performed according to the methodology described by Banin, S. et al. (1998). 10 μl of immunoprecipitated ATM in Buffer C (50 mM Hepes, pH 7.4, 6 mM MgCl2, 150 mM NaCl, 0.1 mM sodium orthovanadate, 4 mM MnCl2, 0.1 mM dithiothreitol, 10% glycerol) was added to 32.5 μl of buffer C containing 1 μg of the ATM substrate GSTp53N66 in a V-bottomed 96 well polypropylene plate. The GSTp53N66 substrate is the amino terminal 66 amino acid residues of human wild type p53 fused to glutathione S-transferase. ATM phosphorylates p53 on the residue serine 15 (Banin, S. et al. (1998)). Varying concentrations of inhibitor were then added. […] After 10 minutes of incubation at 37° C., the reactions were initiated by the addition of 5 μl of 500 μM Na-ATP. After 1 hour with shaking at 37° C., 150 μl of phosphate buffered saline (PBS) was added to the reaction and the plate centrifuged at 1500 rpm for 10 minutes. 5 μl of the reaction was then transferred to a 96 well opaque white plate containing 45 μl of PBS to allow the GSTp53N66 substrate to bind to the plate wells. The plate was covered and incubated at room temperature for 1 hour with shaking before discarding the contents. The plate wells were washed twice by the addition of PBS prior to the addition of 3% (w/v) bovine serum albumin (BSA) in PBS. The plate was incubated at room temperature for 1 hour with shaking before discarding the contents and washing twice with PBS. To the wells, 50 μl of a 1:10,000 dilution of primary phosphoserine-15 antibody (Cell Signaling Technology, #9284L) in 3% BSA/PBS was added to detect the phosphorylation event on the serine 15 residue of p53 elicited by the ATM kinase. After 1 hour of incubation at room temperature with shaking, the wells were washed four times with PBS prior to the addition of an anti-rabbit HRP conjugated secondary antibody (Pierce, 31462) with shaking for 1 hour at room temperature. The wells were then washed four times with PBS before the addition of chemiluminescence reagent (NEN Renaissance, NEL105). The plate was then shaken briefly, covered with a transparent plate seal and transferred to a TopCount NXT for chemiluminescent counting. Counts per second, following a one second counting time, were recorded for each reaction.
The enzyme activity for each compound is then calculated using the following equation: […]
Compound `O=c1cc(-c2ccc(NS(=O)(=O)Cc3ccccc3)c3c2Sc2ccccc2C3)oc(N2CCOCC2)c1` [Compound 130] showed a negative logarithm of the IC50 (pIC50) of over 6.70.
On the same count and under the same terms, under `O=C(O)C1CC1C(=O)Nc1ccc2c(c1)Cc1cccc(-c3cc(=O)cc(N4CCOCC4)o3)c1S2` (stereo not drawn) [Compound 49] stands over 6.70; under `O=C(NCCN1CCCCC1)c1ccc2c(c1)Sc1cccc(-c3cc(=O)cc(N4CCOCC4)o3)c1S2` [Compound 166], over 6.70.
For the compound `O=C(CN(CCO)CCO)Nc1ccc2c(c1)Cc1cccc(-c3cc(=O)cc(N4CCOCC4)o3)c1S2` [Compound 54], the pIC50 was over 6.70.
On the same count and under the same terms, next, `CC(C)(C)OC(=O)Nc1ccc2c(c1)Cc1cccc(-c3cc(=O)cc(N4CCOCC4)o3)c1S2` [Compound 19, [5-(6-Morpholin-4-yl-4-oxo-4H-pyran-2-yl)-9H-thioxanthen-2-yl]-carbamic acid tert-butyl ester]: over 6.70.
Regarding `CN1CCN(CC(=O)Nc2ccc3c(c2)Cc2cccc(-c4cc(=O)cc(N5CCOCC5)o4)c2S3)CC1` [Compound 53], the negative-log IC50 (pIC50) is over 6.70.
The same measure, in the same setting: next, `NCCNCC(=O)Nc1ccc2c(c1)Cc1cccc(-c3cc(=O)cc(N4CCOCC4)o3)c1S2` [Compound 57]: over 6.70; `Cc1cc(C(=O)Nc2ccc3c(c2)Cc2cccc(-c4cc(=O)cc(N5CCOCC5)o4)c2S3)c(C)o1` [Compound 42]: over 6.70; `O=C(NCCN1CCOCC1)c1ccc2c(c1)Sc1cccc(-c3cc(=O)cc(N4CCOCC4)o3)c1S2` [Compound 177]: over 6.70.
The same measure, in the same setting: next, `O=C(c1ccc2c(c1)Sc1cccc(-c3cc(=O)cc(N4CCOCC4)o3)c1S2)N1CCCCCC1` [Compound 161]: over 6.70; `CCN(CC)CCC(=O)Nc1ccc2c(c1)Cc1cccc(-c3cc(=O)cc(N4CCOCC4)o3)c1S2` [Compound 83]: over 6.70; `O=C(c1ccc2c(c1)Sc1cccc(-c3cc(=O)cc(N4CCOCC4)o3)c1S2)N1CCCCC1` [Compound 157]: over 6.70.
Still for that read-out and setting: next, `O=c1cc(-c2cccc3c2Oc2ccccc2S3)oc(N2CCOCC2)c1` [Compound 5, 2-Phenoxathiin-4-yl-6-morpholin-4-yl-pyran-4-one]: over 6.70; `O=C(NCC1CCCO1)c1ccc2c(c1)Sc1cccc(-c3cc(=O)cc(N4CCOCC4)o3)c1S2` (stereo not drawn) [Compound 149]: over 6.70; `O=C(CCNCCCN1CCOCC1)Nc1ccc2c(c1)Cc1cccc(-c3cc(=O)cc(N4CCOCC4)o3)c1S2` [Compound 80]: over 6.70.
The compound `O=C(NNC(=O)c1ccc2c(c1)Sc1cccc(-c3cc(=O)cc(N4CCOCC4)o3)c1S2)c1ccccc1` [Compound 162] gave a pIC50 of over 6.70.
Still for that read-out and setting: next, `O=C(CNCCN1CCOCC1)Nc1ccc2c(c1)Cc1cccc(-c3cc(=O)cc(N4CCOCC4)o3)c1S2` [Compound 67]: over 6.70; `C[C@@H]1CN(C(=O)c2ccc3c(c2)Sc2cccc(-c4cc(=O)cc(N5CCOCC5)o4)c2S3)C[C@H](C)O1` [Compound 159]: over 6.70; `COCCN(CCOC)CCC(=O)Nc1ccc2c(c1)Cc1cccc(-c3cc(=O)cc(N4CCOCC4)o3)c1S2` [Compound 73]: over 6.70.
Same read-out and setting: next, `O=C(Nc1ccc(-c2cc(=O)cc(N3CCOCC3)o2)c2c1Cc1ccccc1S2)c1ccc2nsnc2c1` [Compound 112]: over 6.70.
Compound `CNC(=O)c1ccc2c(c1)Sc1cccc(-c3cc(=O)cc(N4CCOCC4)o3)c1S2` [Compound 139] had a pIC50 of over 6.70.
Still for that read-out and setting: next, `O=C(CN1CCNCC1)Nc1ccc2c(c1)Cc1cccc(-c3cc(=O)cc(N4CCOCC4)o3)c1S2` [Compound 52]: over 6.70.
`N#Cc1ccc(C(=O)Nc2ccc(-c3cc(=O)cc(N4CCOCC4)o3)c3c2Cc2ccccc2S3)cc1` [Compound 113] gave a pIC50 of over 6.70.
`O=c1cc(-c2ccc(F)c3c(=O)c4ccccc4sc23)oc(N2CCOCC2)c1` [Compound 13, 2-(1-Fluoro-9-oxo-9H-thioxanthen-4-yl)-6-morpholin-4-yl-pyran-4-one] gave a pIC50 of over 4.70.
Still for that read-out and setting: next, `CC(=O)OCC(=O)Nc1ccc2c(c1)Cc1cccc(-c3cc(=O)cc(N4CCOCC4)o3)c1S2` [Compound 40]: over 6.70; `O=C(CCN(CCO)CCO)Nc1ccc2c(c1)Cc1cccc(-c3cc(=O)cc(N4CCOCC4)o3)c1S2` [Compound 72]: over 6.70; `O=C(Nc1ccc(-c2cc(=O)cc(N3CCOCC3)o2)c2c1Cc1ccccc1S2)c1ccc2c(c1)OCO2` [Compound 115]: over 6.70.
Same read-out and setting: next, `COC(=O)C(=O)Nc1ccc(-c2cc(=O)cc(N3CCOCC3)o2)c2c1Cc1ccccc1S2` [Compound 116]: over 6.70; `O=C(Nc1ccc2c(c1)Cc1cccc(-c3cc(=O)cc(N4CCOCC4)o3)c1S2)c1cccnc1` [Compound 26]: over 6.70; `O=C(NC1CCCCC1)c1ccc2c(c1)Sc1cccc(-c3cc(=O)cc(N4CCOCC4)o3)c1S2` [Compound 151]: over 6.70.
Still for that read-out and setting: next, `O=C(CNCCO)Nc1ccc2c(c1)Cc1cccc(-c3cc(=O)cc(N4CCOCC4)o3)c1S2` [Compound 56]: over 6.70; `NCCNCCC(=O)Nc1ccc2c(c1)Cc1cccc(-c3cc(=O)cc(N4CCOCC4)o3)c1S2` [Compound 75]: over 6.70; `Cc1ccoc1C(=O)Nc1ccc(-c2cc(=O)cc(N3CCOCC3)o2)c2c1Cc1ccccc1S2` [Compound 129]: over 6.70.
For the compound `O=C(CN1CCCNCC1)Nc1ccc2c(c1)Cc1cccc(-c3cc(=O)cc(N4CCOCC4)o3)c1S2` [Compound 60], the negative logarithm of the IC50 (pIC50) was over 6.70.

The subject of a further assay is HIV-1 HXB2 wild type. As to the kind of experiment: HIV-1 4-day replication assay, wild type strain (p24 antigen ELISA). The format is cell-based. As to conditions: Human immunodeficiency virus 1, HXB2, 96 h; C8166 T-cells; 4-day replication; p24. As to the method:
(§1) HIV-1 4-day Replication Assays
(§2) C8166 T-cells were washed and infected with HIV-1 (strains HXB2wt and HXB2AZTres, RT amino acid changes 67N, 70R, 215F, 219Q) at low multiplicity of infection for one hour at room temperature. The cells were then washed and distributed (5×10^4 cells/well) in triplicate into the wells of 96-well cell culture plates containing different concentrations of inhibitors. The plates were then incubated at 37° C. for 4 days. The cell-free culture fluid was then harvested and assayed for levels of p24 viral antigen using a commercially available ELISA kit (Murex), according to the manufacturers' instructions. Cytotoxicity was evaluated by distributing (5×10^4 cells/well) uninfected C8166 T-cells into triplicate wells of 96-well cell culture plates containing different concentrations of inhibitor and incubating the plates at 37° C. After 4 days, 25 μl of XTT, which is metabolised by viable but not dead cells was added and the plates incubated for a further 3 hours at 37° C. Finally, the absorbance was read at a wavelength of 450 nm.
Regarding `Cc1cn([C@H]2C[C@H](N=[N+]=[N-])[C@@H](CO)O2)c(=O)[nH]c1=O` [AZT, 3′-azido-3′-deoxythymidine, reference compound], the IC50 is 0.002 µM.

The test system of the next assay is HIV-1 HXB2 AZT resistant. As to the kind of experiment: microbe, parasite or virus in culture. The format is cell-based. The settings on record: Human immunodeficiency virus 1, HXB2, C8166, 96 h, read-out: HIV-1 HXB2 (IC50 μM) AZT resistant. The protocol:
as §1, §2
As for `Cc1cn([C@H]2C[C@H](N=[N+]=[N-])[C@@H](CO)O2)c(=O)[nH]c1=O` [AZT, 3′-azido-3′-deoxythymidine, reference compound], the IC50 was 0.05 µM.
